Source: patent US20160266153A1, “I[…] PREGABALIN” (Randox Laboratories Limited, priority 2015, published 2016)
In brackets after ≈: the same amount, converted by molar mass.

Columns and labels:
[1] = system: antibody RS2845 (raised against Immunogen II); test: Competitive ELISA: HRP tracer (Tracer 1) versus pregabalin or potential cross-reactants for binding sites of polyclonal antibody RS2845; details: for % Cross-Reactivity: % CR = IC50 pregabalin/IC50 CR x 100, cross-reactants assessed at 5 μg/ml, (S) pregabalin as calibrator; for IC50 (standard concentration which produces 50% B/B0): antibody RS2845 coated at 5 μg/ml, Tracer 1, (S) enantiomer of pregabalin as calibrator
Experimental: The antibody titre is evaluated by coating a microtitre plate (Thermo Fisher Scientific NUNC, 468667) with antibody (125 μl/well) in coating buffer (10 mM Tris pH 8.5) at 37° C. for 2 hours. The plate is then washed 4 times over 10 minutes with working strength mixture of Tris-Buffered Saline and Tween 20 (TBST). 50 μl of sample/standard (pregabalin) is added to the appropriate wells in triplicate, followed by 75 μl of hapten-HRP conjugate and incubated at 25° C. for 1 hour. The plate is then washed and 125 μl of TMB (Randox Laboratories, 4380-15) added to each well and left at room temperature for 20 mins in the dark. The reaction is stopped using 125 μl of 0.2 M sulphuric acid. The absorbances are read at 450 nm with an ELISA microplate reader (BIO-TEK Instruments, Elx800) and the means calculated. Antibody sensitivity can then be determined.
IgG was extracted from serum from the immunized animal the using ammonium sulphate/caprylic acid precipitation and the purified antibody was immobilised on a 96 well ELISA plate at 5 μg/ml in 10 mM TRIS buffer, pH 8.5 overnight at 4° C. The assay was based on competition for binding sites of a polyclonal antibody between HRP tracer and pregabalin or potential cross-reactants. The plate was washed (×3) with TBST and the calibrator (pregabalin) or potential cross reactants added (50 μl per well), followed by HRP tracer (75 μl/well) to the appropriate wells. The plates were then incubated for 60 minutes at 25° C. They were then subjected to 2 quick wash cycles using TBST, followed by 4×2 minute wash cycles. 125 μL of signal 25 (TMB) was then added to each well for 20 mins at room temperature in the dark. The reaction was stopped by the addition of 125 μl of 0.2 M Sulphuric Acid per well and the plates read immediately at 450 nm. Calibration curves were generated and these were used to determine the sensitivity and specificity of the immunoassay for pregabalin and potential cross-reactants. The data was inputted to a computer program called ‘KC Junior’ (Biotek). […] This program is used to calculate the IC50 values by dividing the 0 ng/ml optical density (OD) value by 2 and obtaining the concentration value from the curve for this OD.
wherein % CR is the percentage cross-reactivity, IC50 pregabalin is the concentration of pregabalin which causes 50% displacement of signal and IC50 CR is the concentration of potential cross-reactant that causes 50% displacement of signal.
The antibody (RS2845) used to generate the data in the tables below was raised from Immunogen II (Example 9) and the HRP tracer was prepared as in Example 10 (Tracer 1).

[2] = in vivo; cited from earlier work

Structure (SMILES) | % Cross-Reactivity [1] [%] | also measured
CCC(C)CC(C)N (centres unmarked) [1,3-dimethylamylamine (DMAA), 1,3-dimethylamylamine] | 2.2 | –
NCCc1c[nH]c2ccc(O)cc12 [Serotonin] | <1 | –
CNC[C@H](CC(=O)O)CC(C)C [N-methylpregabalin, N-methyl pregabalin] | <1 | –
NC(=O)N1c2ccccc2C=Cc2ccccc21 [Carbamazepine] | <1 | –
NC(=O)OCC(COC(N)=O)c1ccccc1 [Felbamate] | <1 | –
CC(C)CC(CN)CC(=O)O (centres unmarked) [Pregabalin, 3-(aminomethyl)-5-methylhexanoic acid] | 100 | IC50 (standard concentration which produces 50% B/B0) [1]: 0.266 ng/mL (≈ 1.67 nM); IC50 (standard concentration which produces 50% B/B0) ([1]; listed as pregabalin): about 0.266 ng/ml; B/B0 ([1]; pregabalin 0.02 ng/ml): 76%; B/B0 ([1]; pregabalin 0.08 ng/ml): 52%; B/B0 ([1]; pregabalin 0.31 ng/ml): 28%; B/B0 ([1]; pregabalin 1.25 ng/ml): 14%; B/B0 ([1]; pregabalin 5.00 ng/ml): 7%; Dose excreted unchanged in the urine [2]: about 98%; Metabolism [2]: negligible metabolism
C=CC(N)CCC(=O)O (centres unmarked) [Vigabatrin] | <1 | –
Cc1ccsc1C(=CCCN1CCC[C@@H](C(=O)O)C1)c1sccc1C [Tiagabine] | <1 | –
N[C@@H](CCC(=O)O)C(=O)O [L-Glutamic Acid] | <1 | –
NCCCC(=O)O [Gamma-aminobutyric acid] | <1 | –
CCCC(CCC)C(=O)O [Valproic acid] | <1 | –
COC[C@@H](NC(C)=O)C(=O)NCc1ccccc1 [Lacosamide] | <1 | –
N[C@H](CCC(=O)O)C(=O)O [D-Glutamic Acid] | <1 | –
CC1(C)O[C@@H]2[C@@H](CO[C@@]3(COS(N)(=O)=O)OC(C)(C)O[C@@H]23)O1 [Topiramate] | <1 | –
CC(C)(C)C(O)/C=C/c1ccc2c(c1)OCO2 (centres unmarked) [Stiripentol] | <1 | –
NCC1(CC(=O)O)CCCCC1 [Gabapentin] | <1 | –
CC[C@@H](C(N)=O)N1CCCC1=O [Levetiracetam] | <1 | –
